Experimental data taken from patent US20130157954A1, “METHODS FOR TREATMENT OR PROPHYLAXIS OF KIDNEY OR LIVER DYSFUNCTION” (NPS PHARMACEUTICALS, INC., priority 2010, published 2013).

Assay: Example 2: liver biomarkers (albumin, gamma glutamyl transferase, total bilirubin, ALT, AST, ALP) in short bowel syndrome patients, every four weeks for 24 weeks; also sorted by >10% change from baseline
Format: in vivo, Human
Method: To further confirm the results of Example 1, a further study was conducted involving more individuals and additional diagnostic biomarkers. Human patients with short bowel syndrome were divided into two groups: a control group (43 total individuals) to receive placebo, and an experimental group (42 total individuals) to receive teduglutide at 0.05 mg/kg/day throughout the study. Patients were treated by subcutaneous injection of placebo or the appropriate dose of teduglutide. Known biomarkers of liver function were monitored every four weeks, for 24 weeks. The liver biomarkers tested included albumin, gamma glutamyl transferase, total bilirubin, ALT and AST and ALP. Before administration of placebo or teduglutide, diagnostic biomarker levels were tested to establish a baseline for each individual.
To determine the effect of GLP-2 on the levels of the diagnostic biomarkers, the average level of each biomarker was measured for the placebo and teduglutide treated groups for each visit. Furthermore, the average change from baseline was calculated using the established baseline values. For FIGS. 17-28, p-values were calculated using the t-test.
P values are provided, which were calculated for each distribution of biomarker changes for each week using the chi-squared test.

[1] = Endpoint (last assessment after start of treatment), 0.05 mg/kg/d, m = 42
[2] = Endpoint (last assessment after the start of treatment), 0.05 mg/kg/d

For `CC[C@H](C)[C@H](NC(=O)[C@H](Cc1ccccc1)NC(=O)[C@H](CC(=O)O)NC(=O)[C@H](CCCNC(=N)N)NC(=O)[C@H](C)NC(=O)[C@H](C)NC(=O)[C@H](CC(C)C)NC(=O)[C@H](CC(N)=O)NC(=O)[C@H](CC(=O)O)NC(=O)[C@H](CC(C)C)NC(=O)[C@@H](NC(=O)[C@@H](NC(=O)[C@H](CC(N)=O)NC(=O)[C@H](CCSC)NC(=O)[C@H](CCC(=O)O)NC(=O)[C@H](CC(=O)O)NC(=O)[C@H](CO)NC(=O)[C@H](Cc1ccccc1)NC(=O)[C@H](CO)NC(=O)CNC(=O)[C@H](CC(=O)O)NC(=O)CNC(=O)[C@@H](N)Cc1c[nH]cn1)[C@@H](C)O)[C@@H](C)CC)C(=O)N[C@@H](CC(N)=O)C(=O)N[C@@H](Cc1c[nH]c2ccccc12)C(=O)N[C@@H](CC(C)C)C(=O)N[C@H](C(=O)N[C@@H](CCC(N)=O)C(=O)N[C@H](C(=O)N[C@@H](CCCCN)C(=O)N[C@H](C(=O)N[C@H](C(=O)N[C@@H](CC(=O)O)C(=O)O)[C@@H](C)O)[C@@H](C)CC)[C@@H](C)O)[C@@H](C)CC` [teduglutide], the “level of diagnostic biomarkers elevated in liver dysfunction vs placebo cohort” value (0.05 mg/kg/day, Table 3, FIGS. 17-20 and 23-28) was “lower level, on average”, the “likelihood of >10% decrease in liver biomarkers vs placebo” value (0.05 mg/kg/day, Table 4) was “more likely to experience a >10% decrease” and the “likelihood of >10% increase in liver biomarkers vs placebo” value (0.05 mg/kg/day, Table 4) was “less likely to experience a >10% increase”. For the same compound, the “measured level of albumin relative to placebo cohort” value (0.05 mg/kg/day, as treatment progressed, FIGS. 21 and 22) was “became elevated”, the “ALT: subjects Within 10% of Baseline” value [1] was 12 (28.6%) n (%) and the “ALT: subjects with >10% decrease from Baseline” value [1] was 25 (59.5%) n (%). For the same compound, the “ALT: subjects with >10% increase from Baseline” value [1] was 5 (11.9%) n (%), the “AST: subjects Within 10% of Baseline” value [1] was 11 (26.2%) n (%) and the “AST: subjects with >10% decrease from Baseline” value [1] was 25 (59.5%) n (%). For the same compound, the “AST: subjects with >10% increase from Baseline” value [1] was 6 (14.3%) n (%), the “Albumin: subjects Within 10% of Baseline” value [1] was 40 (95.2%) n (%) and the “Albumin: subjects with >10% decrease from Baseline” value [1] was 2 (4.8%) n (%). For the same compound, the “Albumin: subjects with >10% increase from Baseline” value [1] was 0 n (%), the “Alkaline Phosphatase: subjects Within 10% of Baseline” value [1] was 12 (28.6%) n (%) and the “Alkaline Phosphatase: subjects with >10% decrease from Baseline” value [1] was 24 (57.1%) n (%). For the same compound, the “Alkaline Phosphatase: subjects with >10% increase from Baseline” value [1] was 6 (14.3%) n (%), the “Bilirubin: subjects Within 10% of Baseline” value [1] was 8 (19.0%) n (%) and the “Bilirubin: subjects with >10% decrease from Baseline” value [1] was 27 (64.3%) n (%). For the same compound, the “Bilirubin: subjects with >10% increase from Baseline” value [1] was 7 (16.7%) n (%), the “ALKALINE PHOSPHATASE Change from Baseline Median” value [2] was −22 U/L and the “ALT Change from Baseline, Max” value [2] was 21 U/L. For the same compound, the “ALT Change from Baseline, Median” value [2] was −4 U/L, the “ALT Change from Baseline, Min” value [2] was −60 U/L and the “ALT Observed Value, Max” value [2] was 149 U/L. For the same compound, the “ALT Observed Value, Mean” value [2] was 31.0 U/L, the “ALT Observed Value, Min” value [2] was 7 U/L and the “AST Change from Baseline, Max” value [2] was 14 U/L. The “AST Change from Baseline, Mean” value [2] was −5.4 U/L, the “AST Change from Baseline, Median” value [2] was −3 U/L and the “AST Change from Baseline, Min” value [2] was −47 U/L. For the same compound, the “AST Observed Value, Max” value [2] was 77 U/L, the “AST Observed Value, Mean” value [2] was 27.0 U/L and the “AST Observed Value, Median” value [2] was 24 U/L. The “AST Observed Value, Min” value [2] was 11 U/L, the “Albumin Change from Baseline, Max” value [2] was 3 g/L and the “Albumin Change from Baseline, Mean” value [2] was -0.5 g/L. The “Albumin Change from Baseline, Median” value [2] was 0 g/L, the “Albumin Change from Baseline, Min” value [2] was -8 g/L and the “Albumin Observed Value, Max” value [2] was 48 g/L. The “Albumin Observed Value, Median” value [2] was 42 g/L, the “Albumin Observed Value, Min” value [2] was 33 g/L and the “Alkaline Phosphatase Change from Baseline, Max” value [2] was 33 U/L. The “Alkaline Phosphatase Change from Baseline, Min” value [2] was −122 U/L, the “Alkaline Phosphatase Observed Value, Max” value [2] was 328 U/L and the “Alkaline Phosphatase Observed Value, Min” value [2] was 49 U/L. The “Bilirubin Change from Baseline, Max” value [2] was 3.4 µmol/L, the “Bilirubin Change from Baseline, Min” value [2] was -26.1 µmol/L and the “Bilirubin Observed Value, Max” value [2] was 31.3 µmol/L. The “Bilirubin Observed Value, Min” value [2] was 2.5 µmol/L, the “Gamma Glutamyl Transferase Change from Baseline, Max” value [2] was 46 U/L and the “Gamma Glutamyl Transferase Change from Baseline, Median” value [2] was −6 U/L. For the same compound, the “Gamma Glutamyl Transferase Change from Baseline, Min” value [2] was −144 U/L, the “Gamma Glutamyl Transferase Observed Value, Max” value [2] was 228 U/L and the “Gamma Glutamyl Transferase Observed Value, Median” value [2] was 42 U/L. For the same compound, the “Gamma Glutamyl Transferase Observed Value, Min” value [2] was 7 U/L, the “ALKALINE PHOSPHATASE Change from Baseline Median” value (Week 2, 0.05 mg/kg/d) was −8 U/L and the “ALT Change from Baseline, Max” value (Week 2, 0.05 mg/kg/d) was 48 U/L. For the same compound, the “ALT Change from Baseline, Mean” value (Week 2, 0.05 mg/kg/d) was −8.9 U/L, the “ALT Change from Baseline, Median” value (Week 2, 0.05 mg/kg/d) was −5.5 U/L and the “ALT Change from Baseline, Min” value (Week 2, 0.05 mg/kg/d) was −58 U/L. The “ALT Observed Value, Max” value (Week 2, 0.05 mg/kg/d) was 142 U/L, the “ALT Observed Value, Min” value (Week 2, 0.05 mg/kg/d) was 9 U/L and the “AST Change from Baseline, Max” value (Week 2, 0.05 mg/kg/d) was 22 U/L. The “AST Change from Baseline, Mean” value (Week 2, 0.05 mg/kg/d) was −3.6 U/L, the “AST Change from Baseline, Median” value (Week 2, 0.05 mg/kg/d) was −3 U/L and the “AST Change from Baseline, Min” value (Week 2, 0.05 mg/kg/d) was −21 U/L. The “AST Observed Value, Max” value (Week 2, 0.05 mg/kg/d) was 78 U/L, the “AST Observed Value, Mean” value (Week 2, 0.05 mg/kg/d) was 29.0 U/L and the “AST Observed Value, Min” value (Week 2, 0.05 mg/kg/d) was 11 U/L. For the same compound, the “Albumin Change from Baseline, Max” value (Week 2, 0.05 mg/kg/d) was 3 g/L, the “Albumin Change from Baseline, Mean” value (Week 2, 0.05 mg/kg/d) was -0.9 g/L and the “Albumin Change from Baseline, Median” value (Week 2, 0.05 mg/kg/d) was -1 g/L. For the same compound, the “Albumin Change from Baseline, Min” value (Week 2, 0.05 mg/kg/d) was -5 g/L, the “Albumin Observed Value, Max” value (Week 2, 0.05 mg/kg/d) was 47 g/L and the “Albumin Observed Value, Median” value (Week 2, 0.05 mg/kg/d) was 42 g/L. For the same compound, the “Albumin Observed Value, Min” value (Week 2, 0.05 mg/kg/d) was 35 g/L, the “Alkaline Phosphatase Change from Baseline, Max” value (Week 2, 0.05 mg/kg/d) was 27 U/L and the “Alkaline Phosphatase Change from Baseline, Min” value (Week 2, 0.05 mg/kg/d) was −76 U/L. For the same compound, the “Alkaline Phosphatase Observed Value, Max” value (Week 2, 0.05 mg/kg/d) was 298 U/L, the “Alkaline Phosphatase Observed Value, Min” value (Week 2, 0.05 mg/kg/d) was 53 U/L and the “Bilirubin Change from Baseline, Max” value (Week 2, 0.05 mg/kg/d) was 8.6 µmol/L. The “Bilirubin Change from Baseline, Min” value (Week 2, 0.05 mg/kg/d) was -18.2 µmol/L, the “Bilirubin Observed Value, Max” value (Week 2, 0.05 mg/kg/d) was 57.4 µmol/L and the “Bilirubin Observed Value, Min” value (Week 2, 0.05 mg/kg/d) was 2.4 µmol/L. For the same compound, the “Gamma Glutamyl Transferase Change from Baseline, Max” value (Week 2, 0.05 mg/kg/d) was 117 U/L, the “Gamma Glutamyl Transferase Change from Baseline, Mean” value (Week 2, 0.05 mg/kg/d) was 7.4 U/L and the “Gamma Glutamyl Transferase Change from Baseline, Median” value (Week 2, 0.05 mg/kg/d) was 2.5 U/L. For the same compound, the “Gamma Glutamyl Transferase Change from Baseline, Min” value (Week 2, 0.05 mg/kg/d) was −48 U/L, the “Gamma Glutamyl Transferase Observed Value, Max” value (Week 2, 0.05 mg/kg/d) was 279 U/L and the “Gamma Glutamyl Transferase Observed Value, Min” value (Week 2, 0.05 mg/kg/d) was 11 U/L. The “ALT: subjects Within 10% of Baseline” value (Week 2, 0.05 mg/kg/d, m = 40) was 10 (25.0%) n (%), the “ALT: subjects with >10% decrease from Baseline” value (Week 2, 0.05 mg/kg/d, m = 40) was 23 (57.5%) n (%) and the “ALT: subjects with >10% increase from Baseline” value (Week 2, 0.05 mg/kg/d, m = 40) was 7 (17.5%) n (%). The “AST: subjects Within 10% of Baseline” value (Week 2, 0.05 mg/kg/d, m = 40) was 15 (37.5%) n (%), the “AST: subjects with >10% decrease from Baseline” value (Week 2, 0.05 mg/kg/d, m = 40) was 20 (50.0%) n (%) and the “AST: subjects with >10% increase from Baseline” value (Week 2, 0.05 mg/kg/d, m = 40) was 5 (12.5%) n (%). For the same compound, the “Albumin: subjects Within 10% of Baseline” value (Week 2, 0.05 mg/kg/d, m = 40) was 37 (92.5%) n (%), the “Albumin: subjects with >10% decrease from Baseline” value (Week 2, 0.05 mg/kg/d, m = 40) was 3 (7.5%) n (%) and the “Albumin: subjects with >10% increase from Baseline” value (Week 2, 0.05 mg/kg/d, m = 40) was 0 n (%). For the same compound, the “Alkaline Phosphatase: subjects Within 10% of Baseline” value (Week 2, 0.05 mg/kg/d, m = 40) was 19 (47.5%) n (%), the “Alkaline Phosphatase: subjects with >10% decrease from Baseline” value (Week 2, 0.05 mg/kg/d, m = 40) was 15 (37.5%) n (%) and the “Alkaline Phosphatase: subjects with >10% increase from Baseline” value (Week 2, 0.05 mg/kg/d, m = 40) was 6 (15.0%) n (%).
